The values that follow come from patent publication US4760065A, “Trifluoromethyl substituted tetracyclic quinazolin-ones having tranquilizing activity” (priority 1986, dated 1988).

As usually defined, the ED50 is the midpoint of the dose-response relation. A low value points to greater potency. By IC50 is commonly meant the concentration at which inhibition is half-maximal.

For data set [1], the system named is rats. Description: Geller Conflict test (conflict segment). Type of data set: in vivo. Particulars: Rattus norvegicus; for minimal effective dose: conflict segment (number of lickings), read-out: minimum effective dosage in conflict test. The procedure: Speth et al., Life Science, 22: 859 (1978). Routine and non-substantive modifications of the Flunitrazepam Receptor Binding Assay that are evident from the following description are employed in such evaluation in which non-radioactive candidate compounds are tested for their ability to displace ^3 H-flunitrazepam binding from isolated calf brain benzodiazepine receptors. […] This suspension is made homogenous by homogenation with a Brinkmann Polytron using a rheostate setting of 8 for 10 seconds. Ten λ of ^3 H-flunitrazepam solution is diluted in 0.05M Tris buffer (pH 7.1 at 37° C.) to give a concentration of 10 nM (3.13×10^-6 mg/ml). This solution is stored frozen at -20° C., while the stock ^3 H-flunitrazepam solution in ethanol is kept refrigerated at +2° C. Periodically, the stock ethanolic ^3 H-flunitrazepam solution is examined by TLC for chemical purity. If the purity becomes <90%, the stock solution is repurified or new high purity ^3 H-flunitrazepam is obtained and the impure ^3 H-flunitrazepam discarded. A 0.1 ml portion of 10 nM ^3 H-flunitrazepam "working" solution is added to 12×75 mm borosilicate disposable test tube along with 0.1 ml of freshly prepared 10% ethanol solution. This is the control tube for measuring total binding. Non-specific binding is determined by the addition of 2×10^-5 diazepam (in 10% ethanol) to other tubes in the place of 0.1 ml 10% ethanol. The specific binding is determined in the final results by subtraction of the non-specific binding from the total binding. […] Three mg of each compound are placed in 18×150 mm borosilicate disposable test tubes. […] The ^3 H-flunitrazepam trapped on the filters is counted by liquid scintillation counting on a Beckman LS 8000 after the filters are rapidly shaken for 45 minutes in the scintillation vials with 10 ml of scintillation cocktail. Results of compounds screened are calculated by the on-line data reduction system in the Beckman LS 8000, and are expressed as a percent specifically bound compared to control. […]

Data set [2] deals with monkeys, rats, cats, mice. Description: Other standard CNS depressant tests (sleep studies, spinal reflex test, chemically induced convulsions test, Dunham rotarod test, variable interval segment of Geller Conflict test). Particulars: at the doses useful as minor tranquilizers, sleep studies in monkeys and rats. Type of data set: in vivo. (Falling from the rotarod earlier than controls is read as motor impairment.)

Data set [3] concerns the target calf brain benzodiazepine receptors (3H-Flunitrazepam binding, calf brain cortex). Description: Flunitrazepam Receptor Binding Assay, Chang et al. modification (FBA TEST No. 2). To be noted: read-out: IC50 in FBA test (inhibition of specific binding of 3H-Flunitrazepam). The procedure:
Substantially similar results are obtainable in a Flunitrazepam Receptor Binding Assay (FBA) as described by Chang et. al., Eur. J. Pharmacol., 48, 213 (1978): when carried out with the non-substantive modifications evident from the following description (hereinafter FBA TEST No. (2): Fresh calf brain cortex is homogenized in a 19 fold volume of Tris-HCl buffer pH 7.4, using a Brinkman Polytron PT 20 and centrifuged at 50'000 g for 10 min. The pellets are frozen at -20° C. and resuspended in a 400 fold volume of Tris-buffer pH 7.4 before use for the binding assay. The assay mixtures consist of 1.8 ml of homogenate (corresponding to 4.5 mg of original tissue), 0.1 ml [^3 H]-Flunitrazepam (final concentration 1.5 nM), and 0.1 ml of buffer for determination of total binding or 0.1 ml of unlabelled Flunitrazepam (final concentration 1 μM) for determination of nonspecific binding, respectively. To assess the potency of various drugs in inhibiting specific binding, drugs are added (instead of buffer) to give 5 to 9 different concentrations between 1 nM and 10 μM, each in duplicate. After incubation for 15 min at 0° C., the assay mixtures are rapidly filtered through Whatman GF/B filters and washed twice with 5 ml of ice cold Tris-buffer. The filters are counted in Rialuma on a LKB Rach-Beta Liquid Scintillation Counter. […]

A short description of data set [4]: Rotarod, Locomotion and Rearing Tests (indicative of sedation). It is filed as in vivo. Particulars: rat, locomotion, rearing tests, rats, one value stated for the three tests. From the text:
(§1) While the racemates and individual optical isomers were indicated to have about the same level of activity in FBA tests specifically indicating tranquilizing activity, a marked difference was found between R-and S optical isomers in vivo in tests indicative of sedation. […] On the other hand, in the case of the S-isomer, the doses producing sedation effects were indicated to substantially overlap those at which tranquilizing activity was indicated. For example, in vivo tests in rats. The S-isomer of Example 9 hereinafter was indicated to have tranquilizing (anxiolytic) action in the dose range of about 2 to 15 milligrams per kilograms and mild sedation-related effects in the dose range of about 3-50 milligrams per kilogram. […] In evaluation of the optical isomers in rats to obtain the above indications, the Discrimination Test and the conflict segment (number of lickings) of Geller Conflict Test were used to evaluate tranquilizing activity. […] In the conflict test, the R-isomer was indicated to have a minimum effective dosage of 30 mg/kg. and the S-isomer a minimum effective dosage of 10 mg/kg. […] On the other hand, the S-isomer was indicated to have an ED50 between 40-50 mg/kg. in the Rotarod, Locomotion and Rearing Tests and a low minimum effective dose of 3 mg/kg. in the Sleep Studies.

In data set [5] the test system is rats. Description: In vivo tests in rats: dose ranges of tranquilizing action and sedation-related effects. To be noted: about; for dose range of sedation-related effects: mild (S-isomer) or weak-to-mild (R-isomer) effects.
Source text: as §1

Data set [6] deals with rats. Description: Discrimination Test. It is filed as in vivo. Particulars: Rattus norvegicus, tranquilizing activity.
Source text: as §1

Data set [7] concerns rats. Description: Sleep studies (sleep/wakefulness studies). It is filed as in vivo. To be noted: indicative of sedation.
Source text: as §1

As for `O=c1c2cc(C(F)(F)F)ccc2nc2n1CC1CCCCN21` (stereo not drawn) [Example 1, Trans(e,e)-( )-2-trifluoromethyl-7,8,9,10,10a,11-Hexahydro-13H-pyrido[1',2':3,4]-imidazo[2,1-b]-quinazolin-13-one], the ED50 in the data set on rats [1] (po, P.O.) was 15 mg/kg. The “activity in other standard CNS depressant tests” value in data set [2] was “only mildly active or essentially inactive”. Further, in data set [3], the IC50 was 6.5 nM.
`O=c1c2cc(C(F)(F)F)ccc2nc2n1C[C@H]1CCCCN21` [Example 5, (-)-10aR-7,8,9,10,10a,11-hexahydro-2-trifluoromethyl-13H-pyrido[1,'2':3,4]imidazo[2,1b]quinazolin-13-one]: the figures for the 50% effective dose (ED50) (in data set [4]; with rats [6]) were above 120 mg/kg and 4.2 mg/kg, respectively. Besides, the “dose range of tranquilizing (anxiolytic) action” value in the data set with rats [5] is listed as 4-40 milligrams per kilogram. For the same compound, in the data set on rats [5], the “dose range of sedation-related effects” value is 60-120 milligrams per kilogram. Moreover, the minimal effective dose in the data set on rats [1] stood at 30 mg/kg. The “minimum effective dose in sleep studies (sleep/wakefulness studies)” value in the data set with rats [7] was 60 mg/kg.
Regarding `O=c1c2cc(C(F)(F)F)ccc2nc2n1C[C@@H]1CCCCN21` [Example 8, (+)-10aS-7,8,9,10,10a,11-Hexahydro-2-trifluoromethyl-13H-pyrido[1,'2':3,4]imidazo[2,1b]quinazolin-13-one], the ED50 in data set [4] was 40 to 50 mg/kg; in the data set with rats [6], 2.6 mg/kg. Moreover, the “dose range of sedation-related effects” value in the data set with rats [5] is 3-50 milligrams per kilogram. In addition, the minimal effective dose in the data set with rats [1] came to 10 mg/kg. The “minimum effective dose in sleep studies (sleep/wakefulness studies)” value in the data set with rats [7] is 3 mg/kg.
